From ChEMBL document CHEMBL3431459, “Roche carnitine palmitoyltransferase modulator screening data (supplementary data associated with the publication CHEMBL2216752)”
Values after ≈ are worked out from the molar mass of the structure shown.

What was measured:
[1] = SUPPLEMENTARY: Lyophilisation Solubility Assay (LYSA); type: physicochemical; details: read-out: Kinetic_solubility
[2] = SUPPLEMENTARY: Lipophilicity (log D) Determination by high-throughput shake-flask; type: physicochemical; details: octanol/water
[3] = molecular target: T1, Carnitine O-palmitoyltransferase 1, muscle isoform (Homo sapiens, UniProt Q92523); experiment: SUPPLEMENTARY: Inhibition of Carnitine palmitoyltransferase 1, muscle isoform; design: species or system Muscle tissue
T1 sequence (Q92523 whole entry): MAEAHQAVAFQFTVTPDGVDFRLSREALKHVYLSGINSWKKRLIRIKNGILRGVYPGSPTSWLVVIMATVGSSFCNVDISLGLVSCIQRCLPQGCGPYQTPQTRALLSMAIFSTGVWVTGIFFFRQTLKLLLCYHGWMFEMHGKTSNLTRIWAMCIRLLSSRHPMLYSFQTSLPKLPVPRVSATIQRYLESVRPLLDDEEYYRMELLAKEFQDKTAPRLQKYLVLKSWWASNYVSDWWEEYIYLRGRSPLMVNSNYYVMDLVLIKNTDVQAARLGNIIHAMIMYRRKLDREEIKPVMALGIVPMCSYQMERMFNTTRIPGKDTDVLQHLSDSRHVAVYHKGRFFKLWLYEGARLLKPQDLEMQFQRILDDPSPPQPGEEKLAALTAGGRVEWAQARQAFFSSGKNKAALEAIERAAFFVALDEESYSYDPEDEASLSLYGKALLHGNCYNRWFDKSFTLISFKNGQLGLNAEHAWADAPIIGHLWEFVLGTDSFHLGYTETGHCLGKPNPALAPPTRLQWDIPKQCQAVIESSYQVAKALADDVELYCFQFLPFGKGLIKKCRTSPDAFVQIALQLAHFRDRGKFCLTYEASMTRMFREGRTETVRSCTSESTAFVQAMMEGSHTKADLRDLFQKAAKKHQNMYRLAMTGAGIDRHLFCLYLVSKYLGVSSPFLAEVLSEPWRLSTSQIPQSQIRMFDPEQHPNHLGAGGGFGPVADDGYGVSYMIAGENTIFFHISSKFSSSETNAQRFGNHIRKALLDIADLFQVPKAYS

[4] = molecular target: T2, Carnitine O-palmitoyltransferase 2, mitochondrial (Homo sapiens, UniProt P23786); experiment: (§1) SUPPLEMENTARY: Inhibition of Carnitine palmitoyltransferase 2
T2 sequence (P23786 whole entry): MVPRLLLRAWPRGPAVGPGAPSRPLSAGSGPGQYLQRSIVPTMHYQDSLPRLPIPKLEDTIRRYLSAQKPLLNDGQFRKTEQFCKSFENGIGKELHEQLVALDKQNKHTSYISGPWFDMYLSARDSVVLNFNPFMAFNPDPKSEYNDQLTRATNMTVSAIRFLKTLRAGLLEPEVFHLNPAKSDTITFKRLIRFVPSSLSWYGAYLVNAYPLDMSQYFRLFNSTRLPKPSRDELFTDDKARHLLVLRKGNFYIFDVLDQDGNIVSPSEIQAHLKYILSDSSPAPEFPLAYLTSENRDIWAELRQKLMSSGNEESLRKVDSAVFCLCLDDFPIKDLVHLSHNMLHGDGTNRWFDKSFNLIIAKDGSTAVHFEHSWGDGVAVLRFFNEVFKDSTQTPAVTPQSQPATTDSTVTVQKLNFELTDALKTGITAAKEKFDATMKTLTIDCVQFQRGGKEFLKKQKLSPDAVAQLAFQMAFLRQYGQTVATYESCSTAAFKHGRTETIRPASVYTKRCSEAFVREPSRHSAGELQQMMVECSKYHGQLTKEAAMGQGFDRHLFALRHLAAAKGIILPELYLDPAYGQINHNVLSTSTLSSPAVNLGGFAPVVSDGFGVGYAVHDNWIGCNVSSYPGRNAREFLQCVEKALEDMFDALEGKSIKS

[5] = molecular target: T3, Carnitine O-palmitoyltransferase 2, mitochondrial (Rattus norvegicus, UniProt P18886); experiment: as §1
T3 sequence (P18886 whole entry): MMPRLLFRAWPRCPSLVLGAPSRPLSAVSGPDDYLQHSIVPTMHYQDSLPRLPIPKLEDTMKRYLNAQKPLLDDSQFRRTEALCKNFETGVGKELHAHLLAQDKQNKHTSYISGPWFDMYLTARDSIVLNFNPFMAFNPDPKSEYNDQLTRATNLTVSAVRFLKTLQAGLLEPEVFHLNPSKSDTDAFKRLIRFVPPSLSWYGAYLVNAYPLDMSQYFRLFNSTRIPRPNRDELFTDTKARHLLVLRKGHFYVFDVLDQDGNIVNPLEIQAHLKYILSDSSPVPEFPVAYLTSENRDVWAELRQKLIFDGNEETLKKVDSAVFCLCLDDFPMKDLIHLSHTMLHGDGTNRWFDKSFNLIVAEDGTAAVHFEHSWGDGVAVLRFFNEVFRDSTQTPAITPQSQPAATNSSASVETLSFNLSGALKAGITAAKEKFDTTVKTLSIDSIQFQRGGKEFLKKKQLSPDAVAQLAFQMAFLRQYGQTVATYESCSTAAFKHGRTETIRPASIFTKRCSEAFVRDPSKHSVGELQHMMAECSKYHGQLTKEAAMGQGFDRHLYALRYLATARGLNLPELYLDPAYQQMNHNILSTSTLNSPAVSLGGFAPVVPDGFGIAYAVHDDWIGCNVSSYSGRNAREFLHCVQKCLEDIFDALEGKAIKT

[6] = molecular target: T4, Carnitine O-palmitoyltransferase 1, liver isoform (Rattus norvegicus, UniProt P32198); experiment: (§2) SUPPLEMENTARY: Inhibition of Carnitine palmitoyltransferase 1, liver isoform
T4 sequence (P32198 whole entry): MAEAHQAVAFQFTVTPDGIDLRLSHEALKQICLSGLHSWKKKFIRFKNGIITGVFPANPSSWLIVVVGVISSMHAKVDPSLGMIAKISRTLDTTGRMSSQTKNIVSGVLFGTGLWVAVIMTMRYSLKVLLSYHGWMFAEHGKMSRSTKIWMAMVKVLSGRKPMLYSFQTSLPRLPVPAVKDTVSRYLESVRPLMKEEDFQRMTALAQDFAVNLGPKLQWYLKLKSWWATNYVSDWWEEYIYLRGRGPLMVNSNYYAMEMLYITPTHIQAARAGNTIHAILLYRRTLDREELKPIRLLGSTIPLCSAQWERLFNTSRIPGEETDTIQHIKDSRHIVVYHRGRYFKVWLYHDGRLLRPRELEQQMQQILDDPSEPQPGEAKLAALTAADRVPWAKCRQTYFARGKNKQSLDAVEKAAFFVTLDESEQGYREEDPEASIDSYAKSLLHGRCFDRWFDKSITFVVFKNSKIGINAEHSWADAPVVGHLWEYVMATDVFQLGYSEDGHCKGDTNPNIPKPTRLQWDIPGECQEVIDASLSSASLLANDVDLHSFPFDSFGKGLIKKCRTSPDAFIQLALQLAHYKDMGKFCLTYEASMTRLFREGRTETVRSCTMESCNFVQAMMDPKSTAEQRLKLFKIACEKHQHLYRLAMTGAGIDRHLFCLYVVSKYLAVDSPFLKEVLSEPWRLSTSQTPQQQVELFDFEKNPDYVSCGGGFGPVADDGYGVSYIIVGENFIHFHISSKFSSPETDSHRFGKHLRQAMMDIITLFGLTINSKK

[7] = molecular target: T5, Carnitine O-palmitoyltransferase 1, liver isoform (Homo sapiens, UniProt P50416); experiment: as §2
T5 sequence (P50416 whole entry): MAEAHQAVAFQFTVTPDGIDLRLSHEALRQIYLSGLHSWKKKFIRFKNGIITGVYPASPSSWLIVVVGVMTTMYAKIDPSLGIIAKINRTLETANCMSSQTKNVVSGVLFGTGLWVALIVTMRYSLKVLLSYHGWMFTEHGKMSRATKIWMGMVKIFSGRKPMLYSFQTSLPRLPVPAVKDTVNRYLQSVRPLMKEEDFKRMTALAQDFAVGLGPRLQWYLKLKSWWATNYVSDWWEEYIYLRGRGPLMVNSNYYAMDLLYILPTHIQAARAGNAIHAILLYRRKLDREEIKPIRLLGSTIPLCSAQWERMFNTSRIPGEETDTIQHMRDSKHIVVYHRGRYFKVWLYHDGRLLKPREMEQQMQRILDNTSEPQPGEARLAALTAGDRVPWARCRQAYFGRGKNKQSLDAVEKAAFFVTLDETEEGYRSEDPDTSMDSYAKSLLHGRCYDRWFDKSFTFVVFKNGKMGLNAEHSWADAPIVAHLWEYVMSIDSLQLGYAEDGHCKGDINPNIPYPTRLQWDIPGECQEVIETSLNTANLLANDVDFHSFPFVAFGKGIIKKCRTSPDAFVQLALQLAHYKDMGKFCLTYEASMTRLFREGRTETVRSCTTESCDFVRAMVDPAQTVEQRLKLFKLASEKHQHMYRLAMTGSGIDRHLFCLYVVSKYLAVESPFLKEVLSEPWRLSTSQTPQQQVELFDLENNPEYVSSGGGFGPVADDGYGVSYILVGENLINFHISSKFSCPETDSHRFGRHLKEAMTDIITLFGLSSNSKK

[8] = SUPPLEMENTARY: PAMPA permeability assay; type: physicochemical; details: read-out: Permeability

O=C(COc1ccccc1)N1CCCC[C@@H]1c1noc(-c2cc(Cl)nnc2O)n1
solubility kinetic [1]: > 509 µg/mL
logD [2]: 1.84
IC50 [3]: 72.9 µM
IC50 [4]: 23 µM
IC50 [5]: > 100 µM
IC50 [6]: 0.63 µM
IC50 [7]: 0.122 µM
Papp [8]: 6.21 ×10⁻⁶ cm/s

COc1ccc(Cl)cc1CN1C(=O)OC(C)(C)c2ccc(C(=O)Nc3nccs3)cc21
solubility kinetic [1]: < 1 µg/mL
logD [2]: > 3
IC50 [3]: > 100 µM
IC50 [4]: > 100 µM
IC50 [5]: > 100 µM
IC50 [6]: > 10 µM
IC50 [7]: 0.278 µM
Papp [8]: 0.3 ×10⁻⁶ cm/s

O=C(COc1ccccc1)N1CCCC[C@@H]1c1noc(-c2ccc3[nH]c(=O)c(=O)[nH]c3c2)n1
solubility kinetic [1]: 50 µg/mL (≈ 112 µM)
logD [2]: 2.25
IC50 [3]: > 100 µM
IC50 [4]: 17 µM
IC50 [5]: > 100 µM
IC50 [6]: 0.502 µM
IC50 [7]: 0.14 µM
Papp [8]: 0.47 ×10⁻⁶ cm/s

O=C(COc1ccccc1)N1CCCC[C@@H]1c1nc(-c2ccc3nccn3c2)no1
solubility kinetic [1]: 17 µg/mL (≈ 42.1 µM)
logD [2]: 2.75
IC50 [3]: 78.1 µM
IC50 [4]: 14.5 µM
IC50 [5]: > 100 µM
IC50 [6]: 0.334 µM
IC50 [7]: 0.167 µM
Papp [8]: 6.32 ×10⁻⁶ cm/s

O=C1COc2ccc(-c3noc([C@H]4CCCCN4C(=O)COc4ccccc4)n3)cc2N1
solubility kinetic [1]: 10 µg/mL (≈ 23 µM)
logD [2]: 3.04
IC50 [3]: 80.8 µM
IC50 [4]: 18 µM
IC50 [5]: > 100 µM
IC50 [6]: 0.0694 µM
IC50 [7]: 0.0557 µM
Papp [8]: 3.91 ×10⁻⁶ cm/s

COc1ccc(Cl)cc1S(=O)(=O)N1CC[S+]([O-])c2ccc(C(=O)Nc3ccc(C(=O)O)cc3)cc21 (stereo not given)
solubility kinetic [1]: 34 µg/mL (≈ 63.6 µM)
logD [2]: -0.34
IC50 [3]: 17.2 µM
IC50 [4]: 2.53 µM
IC50 [5]: 55.6 µM
IC50 [6]: 0.0368 µM
IC50 [7]: 0.0941 µM
Papp [8]: 0.12 ×10⁻⁶ cm/s

O=C1CNc2ccc(-c3nc([C@H]4CCCCN4C(=O)COc4ccccc4)no3)cc2N1
solubility kinetic [1]: 23 µg/mL (≈ 53.1 µM)
logD [2]: 2.38
IC50 [3]: > 100 µM
IC50 [4]: 21.2 µM
IC50 [5]: > 100 µM
IC50 [6]: 0.458 µM
IC50 [7]: 0.0941 µM
Papp [8]: 1.83 ×10⁻⁶ cm/s

COc1ccc(Cl)cc1CN1C(=O)CS(=O)(=O)c2ccc(C(=O)Nc3nc(CC(=O)O)cs3)cc21
solubility kinetic [1]: 417 µg/mL (≈ 778 µM)
logD [2]: -0.29
IC50 [3]: 9.62 µM
IC50 [4]: > 100 µM
IC50 [5]: > 100 µM
IC50 [6]: 0.0898 µM
IC50 [7]: 0.219 µM
Papp [8]: 0.85 ×10⁻⁶ cm/s

O=C1COc2ccc(-c3n[nH]c([C@H]4CCCCN4C(=O)COc4ccccc4)n3)cc2N1
solubility kinetic [1]: 62 µg/mL (≈ 143 µM)
logD [2]: 2.57
IC50 [3]: 94.2 µM
IC50 [4]: 49 µM
IC50 [5]: 82.8 µM
IC50 [6]: 0.0616 µM
IC50 [7]: 0.121 µM
Papp [8]: 0.95 ×10⁻⁶ cm/s

CC(=O)Nc1ccc(F)c(-c2n[nH]c([C@H]3CCCCN3C(=O)COc3ccccc3)n2)c1
solubility kinetic [1]: 181 µg/mL (≈ 414 µM)
logD [2]: 2.5
IC50 [3]: > 100 µM
IC50 [4]: > 100 µM
IC50 [5]: > 100 µM
IC50 [6]: 0.312 µM
IC50 [7]: 0.332 µM
Papp [8]: 4.32 ×10⁻⁶ cm/s
